Consider two molecules from EP0928784B1, “Sertraline polymorph having improved water solubility” (TORCAN CHEMICAL Ltd, priority 1997, dated 1999).

Counter-ions that a name gives are not always drawn. Like-named read-outs stand apart in the source and are kept apart here.

A short description of series [1]: Solubility in aqueous fluids (qualitative, no method described). The format is physicochemical.
Series [2] can be described thus: Stability of the crystalline form (qualitative, no method described). The format is physicochemical. To be noted: applicant's statement.
The conditions of series [3]: as reported in U.S. Patent 5,248,699, among Forms I-V; cited from earlier work.
Series [4] can be described thus: Dissolution rate (qualitative, no method described). In kind it is physicochemical. To be noted: with regard to bioavailability in pharmaceutical formulations.

Consider `CN[C@H]1CC[C@@H](c2ccc(Cl)c(Cl)c2)c2ccccc21` [polymorph T1, (1S-cis)-4-(3,4-dichlorophenyl)-1,2,3,4-tetrahydro-N-methyl-1-naphthalenamine], for which, in series [1] (as compared with Form I sertraline hydrochloride), the “solubility in aqueous fluids” value is “enhanced solubility in aqueous fluids”. Besides, in series [2], the stability result is given as “acceptable stability”.
For `CN[C@H]1CC[C@@H](c2ccc(Cl)c(Cl)c2)c2ccccc21` [sertraline hydrochloride Form I, (1S-cis)-4-(3,4-dichlorophenyl)-1,2,3,4-tetrahydro-N-methyl-1-naphthalenamine], the solubility entry in series [1] (prepared in applicant's laboratory according to Sysko et al., aqueous fluids) is “extremely insoluble”. For the same molecule, the stability result in series [3] was “greatest stability”; in series [2], “stable as reported”. Moreover, the dissolution rate result in series [4] is “too slow to provide adequate bioavailability”.
